# Where two headings read alike, the source gives them in different places.
# How the values were obtained:
# [1] = system: HepG2-A16-CD81 hepatocytes; test: cells; set-up: Uninfected hepatocyte viability, CellTiter-Glo luminescence; conditions: sheet CDD Export 1;, cytotoxicity primary screen, read-out: Table S5. Liver stage reconfirmation data / HepG2 Cytotoxicity primary screen (2uM): % Inhibition
# Procedure: For the screen, 5 μL of HepG2-A16-CD81 hepatocytes containing 3 × 10^3 cells was seeded into 1536-well plates, which had been prespotted with 10 nL of library compound (2 μM final assay concentration (Figure 1)) and incubated overnight. For PbLuc infected plates, approximately 750 purified sporozoites in 5 μL of screening media were added to each well and incubated for 48 h before measuring luciferase activity. Compounds were tested for toxicity in parallel (see Methods) by measuring uninfected hepatocyte viability using CellTiter-Glo. […] This hit rate was slightly lower than expected for an agnostic library, which prompted us to rescreen the entire library at 10 μM. The PbLuc and cytotoxicity assay plates for this second replicate would be stamped in-house with 50 nL of library compound per well, using the same compound plates as the sexual stage screen described below. All the assay parameters were kept similar, except the change in concentration and shortening the time the compounds spent in each well prior to infection. […] All potential false positive effectors from the CellTiter-Glo assay were filtered from subsequent studies (Table S1). Naturally, there were more primary hits from the 10 μM than the 2 μM screen due to the higher testing concentration. For reconfirmation, we sourced all the hits that inhibited PbLuc at >70% and mean HepG2 at <50% in the 2 μM screen or PbLuc at >60% in both 2 and 10 μM screens and mean HepG2 at <50%. The resulting compounds were acquired as DMSO stocks and retested in the dose response (50–2.82 × 10^–4 μM or 25–141.13 × 10^–6 μM) against PbLuc and uninfected hepatocytes (Table S5). […] The majority of these compounds were weak inhibitors, although 18 submicromolar hits were found (Table S5).
# [2] = system: P. falciparum (NF54) stage V gametocytes; test: Stage V gametocyte viability assay (MitoTracker Red CMXRos high content imaging); type: cell-based, Plasmodium falciparum; conditions: Plasmodium falciparum, NF54, 72 h; for inhibition at 2 µM: read-out: Stg V Gam primary screen: Inhibition % (2uM) (n=2)
# P. falciparum Dd2 = test: SYBR green I asexual blood stage proliferation assay (96 h); type: cell-based, Plasmodium falciparum; conditions: Plasmodium falciparum, DD2, 11-pt dose response, 96hr
# [3] = system: P. falciparum Dd2 (PfLuc) line expressing firefly luciferase, asexual blood stage; test: microbe, parasite or virus in culture; type: cell-based, Plasmodium falciparum; conditions: Plasmodium falciparum
# [4] = system: P. falciparum Dd2 (PfLuc) line expressing firefly luciferase, asexual blood stage; test: microbe, parasite or virus in culture; set-up: species or system P. falciparum Dd2-luciferase in human red blood cells; PfLuc Dd2 asexual blood stage luciferase viability, BrightGlo luminescence, 96 h; conditions: Plasmodium falciparum, DD2, Erythrocyte; 8-point, 96 h, DMSO stocks; read-out: CDD P. falciparum Luciferase ABS 8-pt Reconfirmation Dose Response (96hr): IC50
# Procedure: A transgenic line of Plasmodium falciparum (Dd2) constitutively expressing firefly luciferase was used for primary and reconfirmation screening. Cultures were maintained in complete media at 5% hematocrit (Human Whole Blood O+) and incubated at 37 °C in a low oxygen environment (3% O2, 5% CO2, and 92% N2). Culture health and parasitemia were tracked by Giemsa staining and bright field microscopy. Prior to dispensing parasites for primary screening, 20 nL of test compounds and 10 nL of control compounds (artemisinin and DMSO) were seeded per well using an Echo 550 acoustic dispenser (Labcyte) for final assay concentrations of 5 and 10 μM, respectively. When parasite cultures reached 3% to 8% parasitemia, as determined by a blood smear, infected blood was centrifuged at 800g for 5 min. […] From this blood mixture, 8 μL was dispensed per well in 1536-well, white, solid-bottom plates (789173-F, Greiner) using a MultiFlo FX Multi-Mode dispenser (BioTek). Plates were covered with a porous metal lid and incubated at 37 °C inside large plastic Ziploc bags filled with a blood gas mixture (3% O2, 5% CO2, and 92% N2) for 96 h. To prevent evaporation, a clean tray of water was included within each bag. Following incubation, BrightGlo was prepared by manufacturer specifications and dispensed at 2 μL per well using the MultiFlo dispenser. Plates were left for 20 min before being read with the ViewLux uHTS microplate imager (PerkinElmer) with a 90 s exposure time at the High Sensitivity Luminescence setting. Raw data were processed using GeneData (v12.0.5), whereby activity was normalized to negative minus positive controls. The correction of Runwise Pattern (Multiplicative) was applied, and compounds were considered hits when activity was reduced by ≥70%. […] Also, plates tested in 11-point dose response format were incubated at both 48 a The primary assay was run at a compound concentration of 5 μM. Briefly, 8 μL of an ABS parasite mixture (∼10,000 parasites) was dispensed into 1536-well plates previously spotted with 64,811 GHCDL compounds (the remaining 3642 library compounds arrived later and were evaluated separately). After a 96 h incubation, 2 μL of luciferin (BrightGlo) was added, and the luminescent signal was measured. Bioluminescence was normalized to DMSO (negative control) and artemisinin-treated (positive control) wells for the single point screens. For this primary screen, assay fidelity was determined on a per plate basis using both the Z′-factor and the potency variance of the positive (artemisinin) and negative (DMSO) controls. The mean Z′ value was 0.60 (range of 0.43–0.75), with only one plate falling below our ideal 0.5 threshold (Figure S1).
# [5] = read-out: Stg V Gam dose response IC50 (µM) (n=3), 10-point dose response, n=3, 72 h
# [6] = Sybr Green I, read-out: CDD P. falciparum Sybr Green I ABS 11-pt Reconfirmation Dose Response (96hr): IC50
# [7] = DD2, read-out: CDD P. falciparum Luciferase ABS 11-pt Reconfirmation Dose Response (48hr): IC50 (μM), 11-pt dose response, 48hr
# [8] = DD2, 8-pt dose response, 96hr, read-out: CDD P. falciparum Luciferase ABS 8-pt Reconfirmation Dose Response (96hr): IC50
# [9] = DD2, 11-pt dose response, 48hr, read-out: CDD P. falciparum Luciferase ABS 11-pt Reconfirmation Dose Response (48hr): Maximum inhibition (%)
# [10] = DD2, 11-pt dose response, 96hr, read-out: CDD P. falciparum Luciferase ABS 11-pt Reconfirmation Dose Response (96hr): IC50
# [11] = DD2, 11-pt dose response, 96hr, read-out: CDD P. falciparum Luciferase ABS 11-pt Reconfirmation Dose Response (96hr): Maximum inhibition (%)
# [12] = DD2, 8-pt dose response, 96hr, read-out: P. falciparum Luciferase ABS 8-pt Reconfirmation Dose Response (96hr): IC50
# [13] = DD2, 8-pt dose response, 96hr, read-out: P. falciparum Luciferase ABS 8-pt Reconfirmation Dose Response (96hr): Maximum inhibition (%)
# [14] = Sybr Green I, read-out: CDD P. falciparum Sybr Green I ABS 11-pt Reconfirmation Dose Response (96hr): Maximum inhibition (%)
# [15] = DD2, 8-pt dose response, 96hr, read-out: CDD P. falciparum Luciferase ABS 8-pt Reconfirmation Dose Response (96hr): Maximum inhibition (%)
compound,measurement,setting,value
"COCCCNC1N=C(n2nc(C)cc2C)Nc2sc3c(c21)CCCC3 (stereo not shown) [DDD01037467, COCCCNC1N=C(NC2=C1C1=C(CCCC1)S2)N1N=C(C)C=C1C]",inhibition at 2 µM,[1],2.66%
same,IC50,"[2]; read-out: GAM V IC50, stage V gametocytes, 72 h",0.34 µM
same,IC50,[2]; [5],0.344 µM
CCNc1ccnc(CN2CCCC2C(=O)Nc2nccs2)c1 (stereo not shown) [DDD01068941],inhibition at 2 µM,[1],1.3%
same,IC50,P. falciparum Dd2; [6],1650 nM
same,IC50,[3]; [7],0.73 µM
same,IC50,[3]; [8],0.48 µM
same,Emax,[3]; [9],92.3%
same,IC50,[3]; [10],0.407 µM
same,Emax,[3]; [11],99.6%
"Cc1cn2c(n1)C(CNCC1=Cc3ccccc3OC1)CCC2 (stereo not shown) [DDD01073292, CC1=CN2CCCC(CNCC3=CC4=CC=CC=C4OC3)C2=N1]",inhibition at 2 µM,[1],-0.92%
same,IC50,[2]; [5],1.31 µM
same,inhibition at 2 µM,[2],66%
same,IC50,P. falciparum Dd2; read-out: P. falciparum Sybr Green I ABS 11-pt Reconfirmation Dose Response (96hr): IC50,2320 nM
same,Emax,P. falciparum Dd2; read-out: P. falciparum Sybr Green I ABS 11-pt Reconfirmation Dose Response (96hr): Maximum inhibition (%),83.8%
same,IC50,"[3]; DD2, read-out: P. falciparum Luciferase ABS 11-pt Reconfirmation Dose Response (48hr): IC50, 11-pt dose response, 48hr",4.19 µM
same,IC50,[3]; [12],1.65 µM
same,Emax,[3]; [13],93%
same,IC50,"[3]; DD2, 11-pt dose response, 96hr, read-out: P. falciparum Luciferase ABS 11-pt Reconfirmation Dose Response (96hr): IC50",1.84 µM
same,Emax,"[3]; DD2, 11-pt dose response, 96hr, read-out: P. falciparum Luciferase ABS 11-pt Reconfirmation Dose Response (96hr): Maximum inhibition (%)",99.3%
COc1cccc(CNc2cc(C)nc(-c3ccncc3)n2)c1OC [DDD01073393],inhibition at 2 µM,[1],-4.44%
same,IC50,P. falciparum Dd2; [6],589 nM
same,Emax,P. falciparum Dd2; [14],75.8%
same,IC50,[3]; [7],4.09 µM
same,IC50,[3]; [8],0.56 µM
same,Emax,[3]; [15],94.5%
same,Emax,[3]; [9],80%
same,IC50,[3]; [10],0.0383 µM
same,Emax,[3]; [11],98.2%
O=C(CN1CCCC(c2ccn[nH]2)C1)Nc1nc2c(s1)CCCC2 (stereo not shown) [DDD01079490],inhibition at 2 µM,[1],7.13%
same,IC50,P. falciparum Dd2; [6],810 nM
same,Emax,P. falciparum Dd2; [14],69.6%
same,IC50,[3]; [7],0.452 µM
same,IC50,[3]; [8],0.28 µM
same,Emax,[3]; [15],89.3%
same,Emax,[3]; [9],82.4%
same,IC50,[3]; [10],0.266 µM
same,Emax,[3]; [11],97%
c1cc(-c2n[nH]cc2-c2ccnc(N3CCCC3)n2)ccn1 [DDD01235828],IC50,P. falciparum Dd2; [6],37 nM
same,Emax,P. falciparum Dd2; [14],79.4%
same,IC50,[4],61.8 nM
same,IC50,[3]; [7],> 4.16 µM
same,Emax,[3]; [15],91%
same,Emax,[3]; [9],53.9%
same,IC50,[3]; [10],0.167 µM
same,Emax,[3]; [11],92%
same,IC50,"[3]; 96 h incubation, Dd2 luciferase, read-out: 96 hour Pfluc IC50",0.17 µM
"CC1(c2ccccc2)CCCN(Cc2cncn2C2CCCC2)C1 (stereo not shown) [DDD01246491, CC1(CCCN(CC2=CN=CN2C2CCCC2)C1)C1=CC=CC=C1]",inhibition at 2 µM,[1],-6.73%
same,IC50,[2]; [5],2.65 µM
same,inhibition at 2 µM,[2],55.4%
Cc1csc2ncnc(N3CCC(Cn4cc(C(C)(C)N)nn4)CC3)c12 [DDD01257281],inhibition at 2 µM,[1],4.6%
Nc1nc(CCC(=O)N2CCOC(CC3CCCCC3)C2)cs1 (stereo not shown) [DDD01258215],inhibition at 2 µM,[1],-10.6%
CC(=O)c1ccc(N2CCC(CO)(CCOc3ccccc3)CC2)nc1 [DDD01258288],inhibition at 2 µM,[1],17.5%
Cc1nc(N2CC[C@@H](NC(=O)c3cnccn3)[C@H](O)C2)c2ccsc2n1 [DDD01258299],inhibition at 2 µM,[1],-14.6%
COc1cc(CNCc2ccnc(N3CCCCC3)c2)cc(OC)c1 [DDD01297270],inhibition at 2 µM,[1],-2.79%
CCc1cccc(N2CCC(NC(=O)c3ccco3)CC2)c1 [DDD01299802],inhibition at 2 µM,[1],4.14%
COc1cccc(CN2CCN(c3ccc4nncn4n3)C(C)C2)c1 (stereo not shown) [DDD01301691],inhibition at 2 µM,[1],-7.2%
COc1c(C)cnc(CN2CCC(N(C)C(C)C(N)=O)CC2)c1C (stereo not shown) [DDD01301801],inhibition at 2 µM,[1],1.63%
same,IC50,[3]; [12],1.63 µM
same,Emax,[3]; [13],76.5%
Cc1noc(NC(=O)c2ccc(Br)s2)n1 [DDD01302055],inhibition at 2 µM,[1],5.11%
Cn1cc(NS(=O)(=O)c2ccc(OC(F)(F)F)cc2)ccc1=O [DDD01303273],inhibition at 2 µM,[1],-4.65%
CC(C)N(CC(N)=O)Cc1csc(COc2ccc(F)cc2)n1 [DDD01303358],inhibition at 2 µM,[1],6.02%
Cc1ccoc1C(=O)NC1CCN(Cc2csc3c(F)cccc23)CC1 [DDD01304087],inhibition at 2 µM,[1],-2.96%

# Source: article PMC7155171, “Probing the Open Global Health Chemical Diversity Library for Multistage-Active Starting Points for Next-Generation Antimalarials” (ACS Infectious Diseases, 2020)
